Where two headings read alike, the source gives them in different places.

Series [1] is described as follows: Dimer formation of dye by UV spectrum on thin glass slide. The format is physicochemical.
Series [2] can be described thus: Literature spectral properties of prior art fluorescent dyes. It is filed as physicochemical.
The conditions of series [3]: cited from earlier work.
For series [4] the following is noted: cited from earlier work; for RI (relative intensity): 1.00 = intensity of the dye in methanol.
The nature of series [5]: Absorption/emission spectra and molar extinction coefficients of the compounds of Examples A and B in solvents (Table 3). The format is physicochemical. The source says: (§1) The observed absorption maxima, molar extinction coefficients, emission maxima and qualitative solubility data for the boron-rigidized complexes of Examples A and B are provided in Table 3.
A short description of series [6]: Resistance to photodegradation (500 watt mercury vapor lamp; optical density monitored). The format is physicochemical. An excerpt: The resistance to photodegradation of the compounds of Examples A and B in methanol and dichloromethane was also investigated and was compared with photofading rates of certain Coumarin dyes. A degassed solution of each dye in a quartz cuvette was illuminated with a 500 watt mercury vapor lamp from a distance of 4 inches. The solution optical density at maximum wavelength was monitored as a function of time.

A short description of series [7]: Relative fluorescence intensities of the compounds of Examples A and B in a variety of solvents (Table 4). It is filed as physicochemical. The source says: See M. T. Ramos et al., Heterocycles, Vol. 29, p. 165 (1989).
Series [8] in a line: Qualitative solubility of the compounds of Examples A and B (Table 3). The format is physicochemical. The following applies: applies to either dye compound.
Excerpt: as §1

Series [9] in a line: Absorptive and emissive wavelength maxima and fluorescence of the compounds of Examples C to I. It is filed as physicochemical. Conditions: for Maximum absorptive wavelength / Maximum emissive wavelength: measured in methanol; for Fluorescence (in words): qualitative, methanol where stated.

Turning to `O=C(O)CC1=C2Sc3cc(S(=O)(=O)O)ccc3N2[B-](F)(F)[n+]2c1sc1cc(S(=O)(=O)O)ccc12`, in [1] (HMPA), the “Dimer by UV spectrum” value is recorded as “absence of dimer”.

7-amino-4-methylcoumarin acetate: the “Fluorescence capacity (extinction coefficient x quantum yield) relative to the present inventions' compounds” value in [2] is “approximately one-quarter”.

Turning to `O=C(Cc1ccc2c(c1)N1C(=Cc3oc4ccc(CC(=O)ON5C(=O)CCC5=O)cc4[n+]3[B-]1(F)F)O2)ON1C(=O)CCC1=O` [Blue 1-OSu, disuccinimidyl benzoxazolylmethene borondifluoride complex], in series [1] (DMF reaction mixture), the “Dimer by UV spectrum” value was “presence of dimer”.

`CC1=CC(C)=[N+]2C1=Cc1c(C)cc(C)n1[B-]2(F)F` [Bodipy, 3,3',5,5'-tetramethyl-2,2'-pyrromethene-1,1'-boron-difluoride]: in series [3] (aqueous media), the Maximum absorptive wavelength is 500 nm and the Maximum emissive wavelength was 508 nm. Besides, the Emission maximum in series [3] (solvent not stated) is on record as 508 nm. Besides, in series [4] (Acetonitrile), the “RI (relative intensity)” value is given as 0.87, the Extinction coefficient is 86.7 cm⁻¹ mM⁻¹, the Max. absorption wavelength is listed as 501 nm and the Max. emission wavelength was 508 nm. For the same molecule, in series [4] (Dioxane), the “RI (relative intensity)” value is given as 0.63, the Extinction coefficient is 80.0 cm⁻¹ mM⁻¹, the Max. absorption wavelength is listed as 505 nm and the Max. emission wavelength is recorded as 512 nm. Moreover, in series [4] (Methanol), the “RI (relative intensity)” value is reported as 1.00, the Extinction coefficient is 85.3 cm⁻¹ mM⁻¹, the Max. absorption wavelength is reported as 501 nm and the Max. emission wavelength is reported as 509 nm. In [4] (Water), the “RI (relative intensity)” value is given as 0.48, the Max. absorption wavelength is 500 nm and the Max. emission wavelength is reported as 508 nm.

With `CC1=CC(C)=[N+]2C1=Cc1c(C)c(S(=O)(=O)O)c(C)n1[B-]2(F)F` [Bodipy-sulfonate, 4-Sulfonato-3,3'5,5'-Tetramethyl-2,2'-Pyrromethene-1,1'-Borondifluoride Complex], in series [4] (Acetonitrile), the “RI (relative intensity)” value is 0.69, the Extinction coefficient is 58.9 cm⁻¹ mM⁻¹, the Max. absorption wavelength is 504 nm and the Max. emission wavelength is listed as 514 nm. In series [4] (Dioxane), the “RI (relative intensity)” value is reported as 0.64, the Extinction coefficient is 52.7 cm⁻¹ mM⁻¹, the Max. absorption wavelength is 506 nm and the Max. emission wavelength is 518 nm. Further, in [4] (Methanol), the “RI (relative intensity)” value is recorded as 1.00, the Extinction coefficient is 57.7 cm⁻¹ mM⁻¹, the Max. absorption wavelength was 500 nm and the Max. emission wavelength is 515 nm. In addition, in [4] (Water), the “RI (relative intensity)” value was 0.67, the Extinction coefficient is 39.7 cm⁻¹ mM⁻¹, the Max. absorption wavelength is listed as 494 nm and the Max. emission wavelength was 509 nm.

For the molecule `F[B-]1(F)N2C(=Cc3sc4ccccc4[n+]31)Sc1ccccc12` [Example A, Bis-benzothiazolylmethene Borondifluoride], the “Logarithm of the Extinction coefficient” value in [5] (Acetonitrile) is listed as 4.97 M^-1 cm^-1; in series [5] (Chloroform), 4.97 M^-1 cm^-1; in series [5] (Ethyl Acetate) it was 4.98 M^-1 cm^-1; in series [5] (Toluene) it was 4.95 M^-1 cm^-1. In addition, the Max. absorption wavelength worked out at 418 nm in series [5] (Acetonitrile); 420 nm in series [5] (Chloroform); 418 nm in [5] (Ethanol); 418 nm in series [5] (Ethyl Acetate); 418 nm in series [5] (Methanol); 420 nm in series [5] (Toluene). In addition, the Max. emission wavelength came out at 423 nm in series [5] (Acetonitrile); 425 nm in series [5] (Chloroform); 423 nm in [5] (Ethanol); 423 nm in series [5] (Ethyl Acetate); 422 nm in series [5] (Methanol); 427 nm in series [5] (Toluene). Moreover, the “Shape of emission spectrum relative to absorption spectrum” value in series [5] (FIG. 3 and FIG. 4) is “mirrors its absorption spectrum”. Moreover, in [5] (solvents of Table 3), the Stokes shift was 5-7 nm. Also, in series [6] (dichloromethane), the “Red shift at the maximum wavelength” value is listed as “approximately 12 nm”. Moreover, the “Resistance to photofading compared with the Coumarin dyes” value in series [6] (dichloromethane) is “more resistant to photofading than the Coumarin dyes”. Further, the “Photofading rate compared with the corresponding Coumarin compound” value in series [6] (methanol, 500 watt mercury vapor lamp) is “faded somewhat faster”. For the same molecule, the Relative fluorescence intensity came out at 0.89 in series [7] (Acetonitrile); 0.91 in [7] (Chloroform); 0.97 in [7] (Ethyl Acetate); 0.89 in [7] (Methanol); 0.81 in series [7] (Toluene). For the same molecule, the “Solubility data (qualitative)” value is recorded as “sol” in series [8] (Acetonitrile); “sol” in series [8] (Chloroform); “sparingly” in [8] (Ethanol); “sol” in series [8] (Ethyl Acetate); “sparingly” in series [8] (Methanol); “sol” in [8] (Toluene).

On to `O=C(O)Cc1ccc2c(c1)N1C(=Cc3oc4ccc(CC(=O)O)cc4[n+]3[B-]1(F)F)O2` [Example C, Bis-carboxymethyl Benzoxazolylmethene Borondifluoride], for which, in series [9], the Maximum absorptive wavelength is 362 nm, the Maximum emissive wavelength came out at 386 nm and the “Fluorescence (in words)” value is recorded as “highly fluorescent”.

Turning to `F[B-]1(F)N2C(=Cc3sc4ccccc4[n+]31)Oc1ccccc12` [Example D], in series [9], the Maximum absorptive wavelength is 388 nm, the Maximum emissive wavelength came out at 414 nm and the “Fluorescence (in words)” value is listed as “highly fluorescent”.

On to `CC(=O)C1=C2Sc3ccccc3N2[B-](F)(F)[n+]2c1sc1ccccc12` [Example E], for which, in series [9], the Maximum absorptive wavelength is 416 nm and the “Fluorescence (in words)” value is on record as “less fluorescent than the base benzothiazole chromophore”.

`F[B-]1(F)N2C=CC=CC2=Cc2sc3ccccc3[n+]21` [Example F, Benzothiazolyl Pyridylmonomethine Borondifluoride]: in series [9], the Maximum absorptive wavelength turned out to be 430 nm, the Maximum emissive wavelength was 476 nm and the “Fluorescence (in words)” value is “high fluorescence”.

Turning to `N#CC1=C2C=CC=CN2[B-](F)(F)[n+]2ccccc21` [Example G], in series [9], the Maximum absorptive wavelength was 432 nm, the Maximum emissive wavelength is 460 nm and the “Fluorescence (in words)” value is recorded as “very fluorescent”.

Turning to `F[B-]1(F)N2C(=Cc3ccc4ccccc4[n+]31)C=Cc1ccccc12` [Example H, Bis-Quinolinemethene Borondifluoride], in series [9], the Maximum absorptive wavelength amounted to 512 nm, the Maximum emissive wavelength is given as 518 nm and the “Fluorescence (in words)” value is listed as “intense green fluorescence”.

With `F[B-]1(F)N2C(=Cc3ccc4ccccc4[n+]31)Sc1ccccc12` [Example I, 2(2'-Benzothiazolylmethene)Quinoline Borondifluoride], in series [9], the Maximum absorptive wavelength is 480 nm, the Maximum emissive wavelength is listed as 492 nm and the “Fluorescence (in words)” value was “green fluorescence”.

The record behind these values is US5852191A, “Rigidized monomethine cyanines” (Carnegie Mellon University, priority 1995, dated 1998).
